Measured values as given in patent US7226754B2, “Kinase Wee1 fusion protein compositions, nucleotide sequences, expression systems, and methods of use” (The Scripps Research Institute, priority 1998, dated 2007).

Experiments:
[1] = system: Schizosaccharomyces pombe; assay: Replication checkpoint: progression through mitosis of synchronous cultures in the presence of HU; assay type: cell-based; settings: 12 mM HU
Experimental: FIGS. 5A–5B are graphs which illustrate that replication checkpoint is abolished in Cds1 chk1 cells as described in Example 2. […] Progression through mitosis in the presence of 12 mM HU was monitored by scoring binucleate or septated cells. The cds1 chk1 double mutant and rad3 cells underwent mitosis in the presence of HU, whereas division was arrested in control strains (wild-type, Cds1 and chk1 single mutants).
The cell lysates were obtained from a variety of strains of S. pombe cells having the following genotypes: PR109, wild-type; NB2117, cds1::ura4+; NB2118, cds1:2HA6His:ura4+; NR1826, rad3::ura4+; OM591, cdc22-M45; NR1593, rad1::ura4+; NR1592,chk1::ura4+; BF1758, nmt1:GST:chk1:leu1+; BF1916, nmt1:GST:cds1:leu1+; OM2173, mik1:2HA6His:ura4+; OM2183, mik1:2HA6His:ura4+cds1::ura4+; PR712, mik1::ura4+; and BF2115, cds1::ura4+chk1::ura4+. All strains were leu1-32 ura4-D18. All nmt1 promoter constructs were integrated at the leu1-32 locus. Growth media and general methods for S. pombe have been described [Moreno et al, Meth. Enzymol., 194:795 (1991)]. Unless otherwise indicated, yeast cultures were grown in YES medium at 30 C. […]
Cells were first grown in YES (yeast extract and glucose) medium to an OD600 of 1.0 and then treated with HU (12 mM) for 90 min at 30 C. […] Cells were scored for progression through mitosis by microscopic observation. […]

[2] = system: Schizosaccharomyces pombe; assay: HU sensitivity (survival) of S. pombe strains; assay type: cell-based; settings: for sensitivity to killing by HU: 12 mM HU
Experimental: FIG. 3D is a photograph of cell cultures which illustrates that Mikl is important for survival of HU treatment. Serial dilutions or wild-type and mik1 cells were plated in YES medium supplemented with 0 or 6 mM HU and incubated for 2 days at 30° C.
Cells were first grown in YES (yeast extract and glucose) medium to an OD600 of 1.0 and then treated with HU (12 mM) for 90 min at 30 C. Synchronous cells were then obtained by centrifugal elutriation with a Beckman JE-5.0 elutriation rotor. These cells were diluted to an OD600 of 0.3 in YES containing 12 mM HU and grown at 30 C. for a further 4 hr. Cells were scored for progression through mitosis by microscopic observation. HU sensitivity studies were carried out with cells grown to an OD600 of 0.3 in YES medium and then diluted to 13,000 cells/ml in YES media containing HU (12 mM), followed by growth at 30 C. for a further 8 hr. Samples (75 μl) were taken at regular intervals, plated onto YES plates and grown for 4 days at 30 C. to determine survival.

GST:Wee1 = GST:Wee1 phosphorylation by associated kinase from lysates of HU-treated cells; assay type: cell-based, Schizosaccharomyces pombe; settings: lysates of cells treated with 12 mM HU, 1 hr time course at 30° C.
Experimental: FIG. 1B is a photograph of an analysis of proteins from cells that were treated with 12 mM HU for a 1 hr time course at 30° C. Cell lysates were incubated with GST:Wee1 proteins bound to GSH-Sepharose. The GSH-Sepharose was washed and assayed for associated kinase activity. The positions of GST:Wee1^152 and GST:Wee1^70 following 12% SDS-polyacrylamide gel electrophoresis are shown.
The GST:Wee1^152 and GST:Wee1^70 proteins prepared in Example 1 were used to study yeast cellular functions. To that end, the isolated proteins were bound to glutathione (GSH)-Sepharose and mixed with cell lysates from the fission yeast Schizosaccharomyces pombe (S. pombe) harvested at intervals during incubation with hydroxyurea (HU).
The cell lysates were obtained from a variety of strains of S. pombe cells having the following genotypes: PR109, wild-type; NB2117, cds1::ura4+; NB2118, cds1:2HA6His:ura4+; NR1826, rad3::ura4+; OM591, cdc22-M45; NR1593, rad1::ura4+; NR1592,chk1::ura4+; BF1758, nmt1:GST:chk1:leu1+; BF1916, nmt1:GST:cds1:leu1+; OM2173, mik1:2HA6His:ura4+; OM2183, mik1:2HA6His:ura4+cds1::ura4+; PR712, mik1::ura4+; and BF2115, cds1::ura4+chk1::ura4+. All strains were leu1-32 ura4-D18. All nmt1 promoter constructs were integrated at the leu1-32 locus. […]
The proteins bound to GSH-Sepharose were washed, incubated with [gamma-^32P]ATP and analyzed by SDS-polyacrylamide gel electrophoresis (FIG. 1B). […]

Cds1 [3] = assay: Binding of Cds1HAHIS from cell lysates to GST:Wee1 (immunoblot); assay type: cell-based, Schizosaccharomyces pombe; settings: lysates of Cds1HAHIS cells treated 3.5 hr with HU vs mock-treated
Text: FIGS. 3A–3D illustrate that HU stimulates Cds1 kinase activity, binding of Cds1 to GST:Wee1^70 in lysates and accumulation of Mik1 as described in Example 2. FIG. 3A is a photograph of an analysis of proteins which illustrates that HU stimulates Cds1 binding to GST:Wee1^70. A culture of cells expressing Cds1^HAHIS from the cds1 genomic locus was split and treated for 3.5 hr with HU or mock-treated. The cultures were split again and samples processed for Ni^2+-NTA purification of Cds1^HAHIS in denaturing conditions or purification of proteins that bind GST:Wee1 proteins in nondenaturing conditions. After extensive washing, samples were resolved by 10% SDS-polyacrylamide gel electrophoresis and subjected to immunoblot analysis.
HU may increase the abundance of Cds1, or it may make Cds1 competent to associate with Wee1, or perhaps the replication checkpoint enhances the kinase activity of Cds1. Cells expressing Cds1^HAHIS were treated with HU or mock-treated; lysates were made and precipitated with GST:Wee1 proteins. Association of Cds1^HAHIS with GST:Wee1 was detected in lysates from cells treated with HU, whereas no Cds1^HAHIS associated with GST:Wee1 in mock-treated samples (FIG. 3A).

Cds1 [4] = assay: Cds1HAHIS autophosphorylation assay after HU treatment of cells; assay type: cell-based, Schizosaccharomyces pombe; settings: Cds1HAHIS purified from HU or mock-treated cells
Text: FIG. 3B is a photograph of an analysis of proteins which illustrates that HU activates Cds1 kinase activity. In a separate experiment Cds1^HAHIS was purified in native conditions and assayed for autophosphorylation activity (upper panel). Immunoblot analysis confirmed that similar amounts of Cds1HAHIS were recovered in the HU and mock-treated samples (lower panel).
Cds1^HAHIS was also purified from HU or mock-treated cells and assayed in an autophosphorylation assay. Phosphorylation of Cds1 was increased in samples from cells treated HU (FIG. 3B). Similar results were obtained using GST:Wee1^70 as a substrate. Thus HU apparently both activates Cds1 as a kinase and stimulates binding to Wee1.

Mik1 = assay: Mik1HAHIS abundance in HU-treated cells (immunoblot); assay type: cell-based, Schizosaccharomyces pombe; settings: cells treated 4 hrs with 12 mM HU vs mock-treated
Experimental: FIG. 3C is a photograph of an analysis of proteins which illustrates that Cds1 and Rad3-dependent increase in Mik1 abundance in HU-treated cells. Wild-type, Cds1 and rad3 cells in which genomic mik1 encoded Mik1^HAHIS protein were incubated for 4 hrs in YES at 25° C. with 12 mM HU or mock-treated. Mik1HARIS protein was purified by Ni^2+-NTA purification in denaturing conditions and detected by immunoblotting with antibodies to HA.
Phosphorylation of Wee1 by Cds1 may play a role in the DNA replication checkpoint. However, wee1 mutants arrest division in response to HU (Enoch et al, Cell, 60:665, 1990), thus another protein that controls Cdc2 Tyr^15 phosphorylation must also be regulated by the replication checkpoint. The kinase Mik1 phosphorylates Cdc2 on Tyr^15 (Lundgren et al, Cell, 64:1111, 1991), therefore the abundance of Mik1 was monitored in HU-treated cells using a strain expressing Mik1^HAHIS from the genomic locus. […] The abundance of mik1 mRNA was unchanged in HU-treated cells, thus HU must influence Mik1 synthesis or turnover. […] Mik1 is a dose-dependent inhibitor of mitosis (Lundgren et al, Cell, 64:1111, 1991), thus the increase of Mik1 abundance in HU-treated cells should help to enforce the checkpoint.

## NC(=O)NO [HU, hydroxyurea]
[1]; Cds1 chk1 double mutant cells
  cell division in the presence of HU: underwent division
[1]; wild-type cells, Cds1 and chk1 single mutants
  cell division in the presence of HU: arrested division
[2]; Cds1 cells
  sensitivity to killing by HU: moderately sensitive
[2]; Cds1 chk1 double mutant cells
  sensitivity to killing by HU: acutely sensitive to killing
[2]; mik1 mutants, YES medium with 0 or 6 mM HU, 2 days at 30° C.
  sensitivity to HU: enhanced sensitivity
[2]; wild-type and chk1 cells
  sensitivity to killing by HU: not sensitive
GST:Wee1
  phosphorylation of GST:Wee1^152 and GST:Wee1^70: increased
Cds1 [3]
  association of Cds1 with GST:Wee1: enhanced association
Cds1 [4]
  phosphorylation of Cds1 (autophosphorylation): increased
Mik1
  amount of Mik1HAHIS: increased
